The subject of experiment [1] is adult male DWB antenna. In words: Coupled GC-EAD (electroantennographic detection) of synthetic octadecadienyl acetates. On the set-up: species or system Synanthedon scitula. Conditions: for EAD activity in 10 ng of loading: 10 ng loading, male DWB antenna, footnote: relative to E,Z-2,13-octadecadienyl acetate; for EAD activity / electroantennogram response: male DWB antennae, synthetic standards. An excerpt: Identification of peaks: 1, ZZ 3,13-ODDA; 2, EZ 2,13-ODDA; and 3, ZE 3,13-ODDA. Electrophysiological. Recordings and Mass Spectrometry: The coupled gas chromatographic-electroantennographic detection (GC-EAD) system used was as previously described (Zhang, A., and S. Polavarapu, J. Chem. Ecol., 29: 2153-2164 (2003); Zhang, A., and S. Polavarapu, J. Chem. Ecol., 30: 1531-1545 (2004); Zhang, A., et al., J. Chem. Ecol., 23: 231-245 (1997)). A Hewlett Packard (HP) 6890 gas chromatograph equipped with a 60 m×0.25-mm i.d., 0.25-mm film-thickness DB-[…] capillary column (J&W Scientific Inc., Folsom, Calif., 120° C. for 2 min, then programmed to 250° C. at 10° C./min and held for 10 min) or a 60 m×0.25-mm i.d., 0.25-mm film-thickness DB-5 capillary column (J&W Scientific Inc., 100° C. for 2 min, then programmed to 250° C. at 15° C./min and held for 10 min) in the splitless mode with hydrogen as carrier (1.4 ml/min) was used for GC-EAD analysis. Electronic impact (EI) gas chromatography-mass spectrometry (GC-MS) was conducted on a Hewlett-Packard 6890 GC coupled to a HP 5973 Mass Selective Detector using an identical DB-[…] capillary column (120° C. for 2 min, then programmed to 230° C. at 15° C./min and held for 25 min for regular analysis, but with helium as carrier gas. A 70 eV electron beam was employed for sample ionization.

The subject of experiment [2] is male DWB (Synanthedon scitula). As to the kind of experiment: Field trapping tests with lure-baited sticky traps in apple orchards. The class given is in vivo. On the procedure: Field Trapping Tests: Red natural rubber septa (5 mm, Wheaton, N.J.) loaded with the desired rates of Z,Z-3,13-ODDA and the blends in […] of hexane solution were used for field deployment. The same amount of solvent (hexane) was loaded on the septum for the blank control. After loading, the solvent was allowed to evaporate in a fume hood for 30 min. Lures were then wrapped in aluminum foil, stored in 20 ml plastic vials, and shipped by express carrier on the same day. Upon arrival, the lures were kept in a freezer at −10° C. until deployed. All field tests were conducted in commercial apple fields in WV, VA, and NC using Pherocon 1C or Delta sticky traps (Trécé, Salinas, Calif.). Traps were placed in trees at ˜1.2 m above the ground (Riedi, Fla., et al., Cana. Entomol., 117: 1367-1377 (1985)). At each location, experimental lures were randomized within each of three to five rows (depending on the number of replicates per test) and separated by at least one buffer row, and traps were spaced at a minimum of ˜25 m intervals within a row. Traps were rotated among positions within each row at weekly intervals for the duration of each test. The number of dogwood borer, peachtree borer, lilac borer, and other male Sesiidae moths captured were recorded weekly. In the first comparison trial, the following lures were deployed: the single component (100% Z,Z-3,13 ODDA); the binary blend (Z,Z-3,13-ODDA:E,Z-2,13-ODDA=94:6); a second two-component blend (Z,Z-3,13-ODDA:Z,E-3,13-ODDA=94:6, based on the molar amount of the Z,Z-3,13-octadecadienyl acetate in the composition); the trinary blend (Z,Z-3,13-ODDA:E,Z-2,13-ODDA:Z,E-3,13-ODDA=88:6:6); and control. Next, to evaluate the attractive effect of addition of third component, 0.5, 1, 3, or 10% based on the molar amount of the Z,Z-3,13-octadecadienyl acetate of Z,E-3,13-ODDA were added into the binary blend individually. Similarly, 0.5, 1, 3, or 10% of E,Z-2,13-ODDA were individually added into a blend consisted of Z,Z-3,13-ODDA:Z, E-3,13-ODDA (94:6) to evaluate the effect of E,Z-2,13-ODDA. In another comparison, 0.5, 1, 2, or 3% E,Z-3,13-ODDA was added to the trinary blend. Dose response tests of the trinary and binary blends were deployed in each location, with doses consisting of 10-μg, 100-μg, 300-μg, 1-mg, and 10-mg (trinary blend); and 10-μg, 100-μg, 300-μg, 500-μg, and 1-mg (binary blend), respectively. Caged live virgin females (2-4 days old and 1 female per cage) were deployed in traps to provide a natural source of pheromone for comparison with traps baited with the binary and trinary blends. In a final comparison to determine over what distance DWB can detect the trinary blend, we compared captures in traps baited with the trinary blend deployed within an infested apple orchard, and 50 and […] outside the orchard within a large wood lot habitat.
Statistics: The data on control traps were omitted in the analysis because of zero trap catches. Unless otherwise specified, data on trap catches from each test were logarithm transformed (log χ+1) to normalize the variance before analysis. Means were compared by one-way analysis of variance (ANOVA) followed by Ryan-Einot-Gabriel-Welsch Range test (SPSS 10.0 for Windows, George and Mallery, 2002) for significance at α=0.05.

Experiment [3] concerns dogwood borer (DWB). As to the kind of experiment: Species-specificity of lures: share of dogwood borer in captures. In kind it is in vivo, Synanthedon scitula. Particulars: across all sites; FIG. 10. On the procedure:
Field Trapping Tests: Red natural rubber septa (5 mm, Wheaton, N.J.) loaded with the desired rates of Z,Z-3,13-ODDA and the blends in […] of hexane solution were used for field deployment. The same amount of solvent (hexane) was loaded on the septum for the blank control. After loading, the solvent was allowed to evaporate in a fume hood for 30 min. Lures were then wrapped in aluminum foil, stored in 20 ml plastic vials, and shipped by express carrier on the same day. Upon arrival, the lures were kept in a freezer at −10° C. until deployed. All field tests were conducted in commercial apple fields in WV, VA, and NC using Pherocon 1C or Delta sticky traps (Trécé, Salinas, Calif.). Traps were placed in trees at ˜1.2 m above the ground (Riedi, Fla., et al., Cana. Entomol., 117: 1367-1377 (1985)). At each location, experimental lures were randomized within each of three to five rows (depending on the number of replicates per test) and separated by at least one buffer row, and traps were spaced at a minimum of ˜25 m intervals within a row. Traps were rotated among positions within each row at weekly intervals for the duration of each test. The number of dogwood borer, peachtree borer, lilac borer, and other male Sesiidae moths captured were recorded weekly. […]

Entries after “also recorded” stand apart in the source; their conditions may differ.

As for `CCCC/C=C/CCCCCCCCC/C=C/COC(C)=O` [(E,E)-2,13-Octadecadienyl acetate, reference compound], the “EAD activity in 10 ng of loading” value in experiment [1] is 0.012 (±0.21% SD, n = 3) mV.

On to `CCCC/C=C/CCCCCCCC/C=C/CCOC(C)=O` [(E,E)-3,13-Octadecadienyl acetate, E,E-3,13-octadecadienyl acetate, reference compound], for which, in experiment [1], the “EAD activity in 10 ng of loading” value is listed as 0.12 (±3.5% SD, n = 3) mV.

For the compound `CCCC/C=C\CCCCCCCCC/C=C/COC(C)=O` [(E,Z)-2,13-Octadecadienyl acetate, E,Z-2,13-octadecadienyl acetate], in experiment [2] (0.5 to 10% added, FIG. 4), the “effect on attraction of adding the compound to Z,Z-3,13-ODDA:Z,E-3,13-ODDA (94:6) blend” value is on record as “significantly increased”. Further, the “amount added to 94:6 (Z,Z-3,13-ODDA:Z,E-3,13-ODDA) blend at which captures increased significantly” value in experiment [2] (all locations, FIG. 4) is on record as at most 1%. In experiment [1], the “EAD activity in 10 ng of loading” value is listed as 0.13 (±1.2% SD, n = 3) mV and the “EAD activity / electroantennogram response” value is reported as “confirmed by synthetic standards”.

Regarding `CCCC/C=C\CCCCCCCC/C=C/CCOC(C)=O` [(E,Z)-3,13-Octadecadienyl acetate, E,Z-3,13-octadecadienyl acetate], the “effect on trap captures of DWB (attraction antagonism)” value in experiment [2] (added to trinary blend, FIG. 5, listed as E,Z-3,13-ODDA) was “reduced trap captures of DWB significantly; also recorded: inhibit (antagonize) DWB male response and movement”. Further, the “amount added to trinary blend that significantly inhibited (reduced) trap captures” value in experiment [2] (all locations, FIG. 5, listed as E,Z-3,13-ODDA) is at most 0.5%. Also, the “amount added to trinary blend that significantly inhibited (reduced) trap captures” value in experiment [2] (all locations, FIG. 5, listed as E,Z-3 μl 3-ODDA) is recorded as 0.5-1%. Besides, in experiment [1], the “EAD activity in 10 ng of loading” value was 0.30 (±8.7% SD, n = 3) mV and the “EAD activity / electroantennogram response” value was “just as strong an electroantennogram response as Z,Z-3,13-ODDA”.

On to `CCCC/C=C/CCCCCCCCC/C=C\COC(C)=O` [(Z,E)-2,13-Octadecadienyl acetate, reference compound], for which the “EAD activity in 10 ng of loading” value in experiment [1] is listed as 0.030 (±0.10% SD, n = 3) mV.

Regarding `CCCC/C=C/CCCCCCCC/C=C\CCOC(C)=O` [(Z,E)-3,13-Octadecadienyl acetate, Z,E-3,13-octadecadienyl acetate], in experiment [2] (0.5 to 10% added to binary blend (94:6), FIG. 3, listed as Z,E-3,13-ODDA), the “effect on attraction of adding the compound to the binary blend” value is “did not cause a significant increase in attraction; also recorded: did not observe a similar response”. In addition, the “EAD activity in 10 ng of loading” value in experiment [1] was 0.25 (±1.0% SD, n = 3) mV.

Regarding `CCCC/C=C\CCCCCCCCC/C=C\COC(C)=O` [(Z,Z)-2,13-Octadecadienyl acetate, reference compound], the “EAD activity in 10 ng of loading” value in experiment [1] is reported as 0.029 (±0.79% SD, n = 3) mV.

Turning to `CCCC/C=C\CCCCCCCC/C=C\CCOC(C)=O` [(Z,Z)-3,13-Octadecadienyl acetate, Z,Z-3,13-octadecadienyl acetate], in experiment [2] (septa containing 1-mg, NC, VA, WV, FIG. 2, listed as Z,Z-3,13-ODDA), the “attraction of male DWB (trap captures), blend comparison” value was “surprisingly attractive; also recorded: reliably attract male DWB”. For the same compound, in experiment [1], the “EAD activity in 10 ng of loading” value is recorded as 0.30 (±9.5% SD, n = 3) mV and the “EAD activity / electroantennogram response” value is “confirmed by synthetic standards”. For the same compound, in experiment [3], the “percentage of captures that were male dogwood borers” value is on record as 92-99.6%.

(Values after patent US7943159B1, “Female sex pheromone of the dogwood borer (DWB), Synanthedon scitula, and attraction inhibitor (antagonist)” (The United States of America as represented by the …, priority 2006, dated 2011).)
